Assays:
Assay in all cases: biochemical
[1] = target: T1, panel of 374 wild-type kinases (Homo sapiens, UniProt Q76MJ5); settings: read-out: % Enzyme Activity (relative to DMSO controls), ERN2/IRE2
T1 construct: purchased Reaction Biology Corporation

[2] = target: T2, panel of 374 wild-type kinases (Homo sapiens, UniProt P04626); settings: read-out: % Enzyme Activity (relative to DMSO controls), ERBB2/HER2
T2 construct: purchased Reaction Biology Corporation

[3] = target: T3, panel of 374 wild-type kinases (Homo sapiens, UniProt Q96RG2); settings: read-out: % Enzyme Activity (relative to DMSO controls), kinase PASK
T3 construct: purchased Reaction Biology Corporation
T3 sequence (Q96RG2 whole entry): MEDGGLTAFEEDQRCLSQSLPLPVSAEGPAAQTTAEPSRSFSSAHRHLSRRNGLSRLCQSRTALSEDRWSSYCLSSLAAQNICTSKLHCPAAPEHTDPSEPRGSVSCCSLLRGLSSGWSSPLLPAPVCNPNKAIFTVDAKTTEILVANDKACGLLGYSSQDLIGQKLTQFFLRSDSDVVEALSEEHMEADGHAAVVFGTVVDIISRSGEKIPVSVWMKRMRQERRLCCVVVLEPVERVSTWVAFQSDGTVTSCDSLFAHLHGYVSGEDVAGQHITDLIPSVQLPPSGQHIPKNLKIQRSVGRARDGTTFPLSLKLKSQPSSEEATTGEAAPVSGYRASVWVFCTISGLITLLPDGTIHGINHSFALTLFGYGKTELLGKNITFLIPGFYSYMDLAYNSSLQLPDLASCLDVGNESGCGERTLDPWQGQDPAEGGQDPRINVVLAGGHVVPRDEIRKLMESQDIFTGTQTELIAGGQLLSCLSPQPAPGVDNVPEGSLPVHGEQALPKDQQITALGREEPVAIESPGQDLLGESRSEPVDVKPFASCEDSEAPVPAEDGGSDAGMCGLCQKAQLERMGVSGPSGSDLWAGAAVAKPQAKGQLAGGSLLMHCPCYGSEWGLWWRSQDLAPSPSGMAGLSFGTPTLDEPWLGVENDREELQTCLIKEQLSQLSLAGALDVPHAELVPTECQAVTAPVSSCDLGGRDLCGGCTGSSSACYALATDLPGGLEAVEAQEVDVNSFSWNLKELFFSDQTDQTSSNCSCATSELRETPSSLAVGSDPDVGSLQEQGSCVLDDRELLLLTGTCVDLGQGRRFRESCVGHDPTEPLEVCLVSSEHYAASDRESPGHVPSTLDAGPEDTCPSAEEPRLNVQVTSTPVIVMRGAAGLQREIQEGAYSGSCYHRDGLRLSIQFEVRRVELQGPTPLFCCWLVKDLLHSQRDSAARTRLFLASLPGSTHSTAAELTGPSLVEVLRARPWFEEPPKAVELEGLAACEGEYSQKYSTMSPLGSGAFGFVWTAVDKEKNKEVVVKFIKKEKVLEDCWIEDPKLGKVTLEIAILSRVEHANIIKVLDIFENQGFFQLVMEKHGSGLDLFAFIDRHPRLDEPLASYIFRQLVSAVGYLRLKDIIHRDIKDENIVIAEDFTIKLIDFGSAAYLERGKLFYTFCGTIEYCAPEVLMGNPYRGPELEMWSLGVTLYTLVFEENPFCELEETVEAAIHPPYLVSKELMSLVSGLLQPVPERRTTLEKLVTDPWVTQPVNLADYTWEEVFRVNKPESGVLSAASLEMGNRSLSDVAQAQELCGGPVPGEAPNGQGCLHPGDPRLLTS

[4] = target: T4, panel of 374 wild-type kinases (Homo sapiens, UniProt Q04759); settings: read-out: % Enzyme Activity (relative to DMSO controls), kinase PKCtheta
T4 construct: purchased Reaction Biology Corporation
T4 sequence (Q04759 whole entry): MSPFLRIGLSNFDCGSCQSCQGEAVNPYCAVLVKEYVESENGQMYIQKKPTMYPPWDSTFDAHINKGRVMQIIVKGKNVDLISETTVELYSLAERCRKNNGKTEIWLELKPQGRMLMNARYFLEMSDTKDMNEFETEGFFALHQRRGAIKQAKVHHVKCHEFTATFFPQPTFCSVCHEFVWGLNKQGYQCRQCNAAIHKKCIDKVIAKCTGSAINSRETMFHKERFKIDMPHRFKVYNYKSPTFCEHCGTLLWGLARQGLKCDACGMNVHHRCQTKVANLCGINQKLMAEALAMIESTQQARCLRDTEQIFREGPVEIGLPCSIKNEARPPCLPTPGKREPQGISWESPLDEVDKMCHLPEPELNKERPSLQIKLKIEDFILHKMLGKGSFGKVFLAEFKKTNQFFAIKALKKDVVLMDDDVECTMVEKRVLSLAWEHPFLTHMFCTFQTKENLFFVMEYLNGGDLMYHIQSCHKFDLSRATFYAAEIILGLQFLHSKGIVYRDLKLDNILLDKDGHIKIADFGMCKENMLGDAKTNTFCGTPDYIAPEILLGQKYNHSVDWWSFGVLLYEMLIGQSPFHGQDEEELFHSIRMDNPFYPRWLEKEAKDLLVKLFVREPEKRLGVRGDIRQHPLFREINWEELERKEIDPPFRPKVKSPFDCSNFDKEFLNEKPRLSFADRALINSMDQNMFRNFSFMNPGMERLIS

[5] = target: T5, panel of 374 wild-type kinases (Homo sapiens, UniProt P25098); settings: read-out: % Enzyme Activity (relative to DMSO controls), GRK2
T5 construct: purchased Reaction Biology Corporation
T5 sequence (P25098 1-689): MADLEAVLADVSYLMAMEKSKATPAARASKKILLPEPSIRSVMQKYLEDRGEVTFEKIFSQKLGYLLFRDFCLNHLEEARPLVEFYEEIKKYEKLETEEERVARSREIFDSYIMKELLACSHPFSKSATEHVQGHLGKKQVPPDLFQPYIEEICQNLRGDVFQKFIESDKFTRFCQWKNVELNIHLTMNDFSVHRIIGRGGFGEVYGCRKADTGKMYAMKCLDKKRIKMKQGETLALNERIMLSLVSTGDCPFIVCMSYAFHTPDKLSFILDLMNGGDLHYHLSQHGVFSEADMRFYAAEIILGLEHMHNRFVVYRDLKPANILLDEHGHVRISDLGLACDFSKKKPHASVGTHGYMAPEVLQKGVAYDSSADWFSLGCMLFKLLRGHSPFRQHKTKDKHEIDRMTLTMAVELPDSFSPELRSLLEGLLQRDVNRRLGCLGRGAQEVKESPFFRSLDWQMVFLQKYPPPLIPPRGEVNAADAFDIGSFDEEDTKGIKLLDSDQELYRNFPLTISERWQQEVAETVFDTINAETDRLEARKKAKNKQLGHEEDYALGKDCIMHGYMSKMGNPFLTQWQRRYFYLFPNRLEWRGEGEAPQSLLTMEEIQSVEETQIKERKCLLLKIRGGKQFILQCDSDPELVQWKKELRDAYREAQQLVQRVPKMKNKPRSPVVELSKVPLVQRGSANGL

[6] = target: T6, panel of 374 wild-type kinases (Homo sapiens, UniProt Q13177); settings: read-out: % Enzyme Activity (relative to DMSO controls), kinase PAK2
T6 construct: purchased Reaction Biology Corporation
T6 sequence (Q13177 whole entry): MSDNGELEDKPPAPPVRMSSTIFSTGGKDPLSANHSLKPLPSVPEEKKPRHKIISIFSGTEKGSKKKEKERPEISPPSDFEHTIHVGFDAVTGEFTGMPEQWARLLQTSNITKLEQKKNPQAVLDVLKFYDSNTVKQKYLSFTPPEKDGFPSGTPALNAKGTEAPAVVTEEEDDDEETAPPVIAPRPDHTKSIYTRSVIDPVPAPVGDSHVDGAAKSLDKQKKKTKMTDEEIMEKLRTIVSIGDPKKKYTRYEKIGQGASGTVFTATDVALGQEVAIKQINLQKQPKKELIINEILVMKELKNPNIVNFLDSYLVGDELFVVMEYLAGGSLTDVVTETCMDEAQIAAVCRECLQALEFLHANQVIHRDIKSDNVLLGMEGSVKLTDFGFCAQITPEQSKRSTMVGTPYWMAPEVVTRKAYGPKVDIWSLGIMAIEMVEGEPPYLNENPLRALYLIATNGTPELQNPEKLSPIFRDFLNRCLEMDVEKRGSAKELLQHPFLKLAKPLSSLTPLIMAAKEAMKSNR

[7] = target: T7, panel of 374 wild-type kinases (Homo sapiens, UniProt Q15835); settings: read-out: % Enzyme Activity (relative to DMSO controls), GRK1
T7 construct: purchased Reaction Biology Corporation
T7 sequence (Q15835 1-563): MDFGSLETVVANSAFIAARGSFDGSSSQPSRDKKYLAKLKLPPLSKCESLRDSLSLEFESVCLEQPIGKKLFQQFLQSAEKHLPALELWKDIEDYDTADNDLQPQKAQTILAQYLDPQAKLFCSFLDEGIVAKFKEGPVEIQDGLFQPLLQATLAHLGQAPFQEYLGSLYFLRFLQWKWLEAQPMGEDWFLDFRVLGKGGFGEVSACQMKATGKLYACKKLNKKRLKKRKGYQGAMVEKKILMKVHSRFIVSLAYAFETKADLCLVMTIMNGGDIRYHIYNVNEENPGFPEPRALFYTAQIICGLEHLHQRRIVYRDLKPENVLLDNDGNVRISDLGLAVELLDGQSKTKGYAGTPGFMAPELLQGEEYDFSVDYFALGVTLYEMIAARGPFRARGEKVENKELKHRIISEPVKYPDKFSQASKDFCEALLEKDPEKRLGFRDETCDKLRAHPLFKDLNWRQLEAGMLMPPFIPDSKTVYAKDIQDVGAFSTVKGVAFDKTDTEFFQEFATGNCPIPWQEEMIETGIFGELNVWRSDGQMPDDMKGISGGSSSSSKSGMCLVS

[8] = target: T8, panel of 374 wild-type kinases (Homo sapiens, UniProt Q9UK32); settings: read-out: % Enzyme Activity (relative to DMSO controls), kinase RSK4
T8 construct: purchased Reaction Biology Corporation
T8 sequence (Q9UK32 whole entry): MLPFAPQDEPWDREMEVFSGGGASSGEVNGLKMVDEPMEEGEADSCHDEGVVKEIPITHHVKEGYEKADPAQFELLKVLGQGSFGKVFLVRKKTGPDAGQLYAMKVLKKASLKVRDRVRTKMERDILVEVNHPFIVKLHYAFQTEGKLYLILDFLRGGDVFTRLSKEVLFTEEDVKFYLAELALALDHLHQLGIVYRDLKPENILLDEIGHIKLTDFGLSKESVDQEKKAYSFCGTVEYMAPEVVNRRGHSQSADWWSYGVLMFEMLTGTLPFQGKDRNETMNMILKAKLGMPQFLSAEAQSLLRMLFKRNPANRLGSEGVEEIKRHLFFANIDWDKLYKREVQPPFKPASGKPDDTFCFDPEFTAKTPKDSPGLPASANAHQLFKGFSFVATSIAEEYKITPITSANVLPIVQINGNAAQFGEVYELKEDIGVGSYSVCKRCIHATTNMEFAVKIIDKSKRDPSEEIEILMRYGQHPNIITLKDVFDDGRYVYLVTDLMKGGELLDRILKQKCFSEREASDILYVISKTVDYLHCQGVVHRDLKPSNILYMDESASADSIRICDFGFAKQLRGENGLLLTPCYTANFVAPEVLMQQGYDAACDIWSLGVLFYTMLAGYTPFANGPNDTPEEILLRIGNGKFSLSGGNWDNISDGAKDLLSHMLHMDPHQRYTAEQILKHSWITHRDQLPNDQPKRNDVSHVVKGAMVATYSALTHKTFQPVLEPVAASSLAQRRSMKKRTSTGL

[9] = target: T9, panel of 374 wild-type kinases (Homo sapiens, UniProt P17252); settings: read-out: % Enzyme Activity (relative to DMSO controls), kinase PKCa
T9 construct: purchased Reaction Biology Corporation

[10] = target: T10, panel of 374 wild-type kinases (Homo sapiens, UniProt Q9P289); settings: read-out: % Enzyme Activity (relative to DMSO controls), MST4
T10 construct: purchased Reaction Biology Corporation
T10 sequence (Q9P289 whole entry): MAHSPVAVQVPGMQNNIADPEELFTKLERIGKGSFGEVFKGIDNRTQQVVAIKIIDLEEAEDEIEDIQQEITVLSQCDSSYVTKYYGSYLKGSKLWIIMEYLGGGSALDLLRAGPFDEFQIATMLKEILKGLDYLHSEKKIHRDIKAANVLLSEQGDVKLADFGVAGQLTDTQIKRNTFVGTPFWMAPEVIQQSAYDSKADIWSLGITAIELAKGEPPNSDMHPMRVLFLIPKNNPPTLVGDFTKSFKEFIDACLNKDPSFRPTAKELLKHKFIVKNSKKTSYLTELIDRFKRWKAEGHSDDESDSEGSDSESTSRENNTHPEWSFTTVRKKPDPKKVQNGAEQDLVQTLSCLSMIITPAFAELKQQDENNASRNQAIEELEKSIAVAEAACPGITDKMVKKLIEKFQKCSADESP

T1 sequence (Q76MJ5 35-926): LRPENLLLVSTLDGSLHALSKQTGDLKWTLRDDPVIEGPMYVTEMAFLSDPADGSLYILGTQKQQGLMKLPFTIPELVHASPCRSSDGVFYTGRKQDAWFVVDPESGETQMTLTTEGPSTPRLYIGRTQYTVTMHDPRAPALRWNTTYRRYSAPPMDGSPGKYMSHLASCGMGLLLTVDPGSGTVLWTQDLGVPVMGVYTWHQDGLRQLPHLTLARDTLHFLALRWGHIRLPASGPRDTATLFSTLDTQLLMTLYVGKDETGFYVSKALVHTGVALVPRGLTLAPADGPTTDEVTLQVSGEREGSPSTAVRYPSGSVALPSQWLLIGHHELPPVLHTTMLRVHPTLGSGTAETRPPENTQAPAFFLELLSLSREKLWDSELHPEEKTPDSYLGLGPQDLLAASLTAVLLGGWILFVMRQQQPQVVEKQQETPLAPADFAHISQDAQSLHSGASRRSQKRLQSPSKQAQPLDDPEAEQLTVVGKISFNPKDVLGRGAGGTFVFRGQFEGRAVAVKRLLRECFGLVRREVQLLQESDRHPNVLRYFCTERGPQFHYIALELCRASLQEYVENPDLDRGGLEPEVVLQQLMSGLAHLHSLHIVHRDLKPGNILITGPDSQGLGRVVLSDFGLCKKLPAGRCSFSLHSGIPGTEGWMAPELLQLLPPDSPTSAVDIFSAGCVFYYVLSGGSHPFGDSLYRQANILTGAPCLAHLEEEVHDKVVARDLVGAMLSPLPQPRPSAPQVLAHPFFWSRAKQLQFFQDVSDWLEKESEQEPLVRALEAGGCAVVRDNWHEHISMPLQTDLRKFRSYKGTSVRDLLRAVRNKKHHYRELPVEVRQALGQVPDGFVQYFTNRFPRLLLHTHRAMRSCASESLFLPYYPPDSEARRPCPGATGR

SMILES | remaining activity at 5 µM [1] | remaining activity at 5 µM [2] | remaining activity at 5 µM [3] | remaining activity at 5 µM [4] | remaining activity at 5 µM [5] | remaining activity at 5 µM [6] | remaining activity at 5 µM [7] | remaining activity at 5 µM [8] | remaining activity at 5 µM [9] | remaining activity at 5 µM [10] | remaining activity at 10 µM ([1]; 10 uM) | remaining activity at 10 µM ([2]; 10 uM) | remaining activity at 10 µM ([3]; 10 uM) | remaining activity at 10 µM ([4]; 10 uM) | remaining activity at 10 µM ([5]; 10 uM) | remaining activity at 10 µM ([6]; 10 uM) | remaining activity at 10 µM ([7]; 10 uM) | remaining activity at 10 µM ([8]; 10 uM) | remaining activity at 10 µM ([9]; 10 uM) | remaining activity at 10 µM ([10]; 10 uM)
O=C(Nc1cnn(-c2csc(C(=O)NC3COC3)c2)c1)Nc1ccccc1Cl [Compound 17, 4-(4-(3-(2-chlorophenyl)ureido)-1H-pyrazol-1-yl)-N-(oxetan-3-yl)thiophene-2-carboxamide] | 100% | 103% | 96.3% | 114% | 96.1% | 90.1% | 91.9% | 107% | 101% | 98.3% |  |  |  |  |  |  |  |  |  | 
O=C(Nc1cnn(-c2csc(C(=O)NC3COC3)c2)c1)Nc1c(F)cccc1Cl [Compound 25, 4-(4-(3-(2-chloro-6-fluorophenyl)ureido)-1H-pyrazol-1-yl)-N-(oxetan-3-yl)thiophene-2-carboxamide] | 100% | 97% | 99.7% | 94.7% | 106% | 95.3% | 92.9% | 92.2% | 90.7% | 71.4% |  |  |  |  |  |  |  |  |  | 
Cc1sc(C(=O)NC2COC2)cc1-n1cc(NC(=O)Nc2c(F)cccc2Cl)cn1 [Compound 27, 4-(4-(3-(2-chloro-6-fluorophenyl)ureido)-1H-pyrazol-1-yl)-5-methyl-N-(oxetan-3-yl)thiophene-2-carboxamide] |  |  |  |  |  |  |  |  |  |  | 80.7% | 64.1% | 96.1% | 96.9% | 106% | 106% | 113% | 116% | 95.9% | 72.4%

Source: patent US20240246942A1, “KINASE INHIBITORS FOR THE TREATMENT OF NEURODEGENERATIVE DISEASES” (priority 2020, published 2024)
